Laboratory results published in ChEMBL document CHEMBL1147009, “Synthesis and SAR studies of diarylpyrrole anticoccidial agents” (Bioorg Med Chem Lett, 2006).

How the values were obtained:
[1] = biological target: cGMP-dependent protein kinase (Eimeria tenella, UniProt Q8MMZ8); test: Inhibition of Eimeria tenella PKG
Eimeria acervulina = test: Anticoccidial activity against Eimeria acervulina at 100 ppm; type: functional
Eimeria tenella = test: Anticoccidial activity against Eimeria tenella at 100 ppm; type: functional

Sequence of cGMP-dependent protein kinase (Q8MMZ8 whole entry): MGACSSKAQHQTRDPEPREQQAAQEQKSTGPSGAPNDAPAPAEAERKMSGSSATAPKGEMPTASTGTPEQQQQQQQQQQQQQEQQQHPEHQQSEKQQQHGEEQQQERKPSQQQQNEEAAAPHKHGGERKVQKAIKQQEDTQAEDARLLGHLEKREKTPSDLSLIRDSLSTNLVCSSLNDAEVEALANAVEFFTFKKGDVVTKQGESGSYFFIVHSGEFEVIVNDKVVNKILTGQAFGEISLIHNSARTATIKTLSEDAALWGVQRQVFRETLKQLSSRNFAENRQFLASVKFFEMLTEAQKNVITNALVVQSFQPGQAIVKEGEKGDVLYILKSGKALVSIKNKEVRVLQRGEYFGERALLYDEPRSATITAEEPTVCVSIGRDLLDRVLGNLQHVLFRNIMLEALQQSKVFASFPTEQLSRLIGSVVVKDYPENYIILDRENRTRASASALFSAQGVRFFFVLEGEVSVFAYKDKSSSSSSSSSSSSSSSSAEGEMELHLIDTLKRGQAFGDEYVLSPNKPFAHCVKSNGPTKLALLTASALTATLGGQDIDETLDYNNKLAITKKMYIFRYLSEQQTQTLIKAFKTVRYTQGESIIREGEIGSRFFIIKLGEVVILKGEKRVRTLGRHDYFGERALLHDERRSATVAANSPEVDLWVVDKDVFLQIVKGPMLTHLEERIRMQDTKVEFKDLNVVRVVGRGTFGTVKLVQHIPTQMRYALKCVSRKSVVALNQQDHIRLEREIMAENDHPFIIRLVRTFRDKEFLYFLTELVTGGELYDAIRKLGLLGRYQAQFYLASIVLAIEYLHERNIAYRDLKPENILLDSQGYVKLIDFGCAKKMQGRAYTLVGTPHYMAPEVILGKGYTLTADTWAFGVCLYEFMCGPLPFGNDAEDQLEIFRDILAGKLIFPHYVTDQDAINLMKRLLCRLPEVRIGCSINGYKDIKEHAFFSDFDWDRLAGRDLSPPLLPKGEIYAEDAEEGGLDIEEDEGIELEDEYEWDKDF

SMILES	IC50 [1] [nM]	Activity (Eimeria acervulina) [%]	Activity (Eimeria tenella) [%]
C[C@@H](O)CN1CCCC1c1cc(-c2ccncc2)c(-c2ccc(F)cc2)[nH]1 (some centres undefined)	3.3	<50	<50
CN1CCCCC1c1cc(-c2ccncc2)c(-c2ccc(F)cc2)[nH]1 (centres undefined)	2.7	<50	<50
CCN(C)CCCc1cc(-c2ccncc2)c(-c2ccc(F)cc2)[nH]1	4.1	<50	<50
OCCN1CCCC1c1cc(-c2ccncc2)c(-c2ccc(F)cc2)[nH]1 (centres undefined)	2.1	<50	<50
CN1CCCC1c1cc(-c2ccncc2)c(-c2ccc(F)cc2)[nH]1 (centres undefined)	1	80	<50
O=C(OCc1ccccc1)N1CCCC1c1cc(-c2ccncc2)c(-c2ccc(F)cc2)[nH]1 (centres undefined)	2.7	<50	<50
Fc1ccc(-c2[nH]c(CN3CCOCC3)cc2-c2ccncc2)cc1	7.6	<50	<50
Fc1ccc(-c2[nH]c(C3CCCN3)cc2-c2ccncc2)cc1 (centres undefined)	3.1	<50	50
CCOC(=O)c1cc(-c2ccncc2)c(-c2ccc(F)cc2)[nH]1	430	<50	<50
CN(C)Cc1cc(-c2ccncc2)c(-c2ccc(F)cc2)[nH]1	0.35	< 50	–
OCC1CCN(Cc2cc(-c3ccncc3)c(-c3ccc(F)cc3)[nH]2)CC1	13	<50	<50
CNC(=O)N1CCCC1c1cc(-c2ccncc2)c(-c2ccc(F)cc2)[nH]1 (centres undefined)	2.3	<50	<50
Fc1ccc(-c2[nH]c(CN3CCCCC3)cc2-c2ccncc2)cc1	3.7	<50	<50
C[C@H](O)CN1CCCC1c1cc(-c2ccncc2)c(-c2ccc(F)cc2)[nH]1 (some centres undefined)	2.8	<50	80
Fc1ccc(-c2[nH]c(CN3CCC3)cc2-c2ccncc2)cc1	1.3	<50	<50
O=S(=O)(c1ccc(F)cc1)N1CCCC1c1cc(-c2ccncc2)c(-c2ccc(F)cc2)[nH]1 (centres undefined)	1.5	<50	<50
O=C(O)Cc1cc(-c2ccncc2)c(-c2ccc(F)cc2)[nH]1	> 1000	<50	<50
CN(C)CCc1cc(-c2ccncc2)c(-c2ccc(F)cc2)[nH]1	2.5	50	50
CC(C)C(c1cc(-c2ccncc2)c(-c2ccc(F)cc2)[nH]1)N(C)C (centres undefined)	0.71	80	50
CN(C)C(=O)Cc1cc(-c2ccncc2)c(-c2ccc(F)cc2)[nH]1	4.1	<50	<50
